According to PubChem BioAssay (NCI):
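Assay format: 96-well plates, 48-hour exposure. GI50 marks 50% less growth. TGI: total growth inhibition.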

Tests used:
Assay in all cases: NCI tumour cell line growth inhibition, 48 h
HCT-15 colon = tested on: HCT-15 colon
HOP-92 NSCLC = tested on: HOP-92 NSCLC
OVCAR-8 ovarian = tested on: OVCAR-8 ovarian
RPMI-8226 leukemia = tested on: RPMI-8226 leukemia
RXF 393 renal = tested on: RXF 393 renal
SK-MEL-2 melanoma = tested on: SK-MEL-2 melanoma
SN12C renal = tested on: SN12C renal
SW-620 colon = tested on: SW-620 colon
TK-10 renal = tested on: TK-10 renal
UACC-257 melanoma = tested on: UACC-257 melanoma

SMILES | TGI (HCT-15 colon) [µM] | TGI (HOP-92 NSCLC) [µM] | TGI (OVCAR-8 ovarian) [µM] | TGI (RPMI-8226 leukemia) [µM] | TGI (RXF 393 renal) [µM] | TGI (SK-MEL-2 melanoma) [µM] | TGI (SN12C renal) [µM] | TGI (SW-620 colon) [µM] | TGI (TK-10 renal) [µM] | TGI (UACC-257 melanoma) [µM] | GI50 (HCT-15 colon) [nM] | GI50 (HOP-92 NSCLC) [nM] | GI50 (OVCAR-8 ovarian) [nM] | GI50 (RPMI-8226 leukemia) [nM] | GI50 (RXF 393 renal) [nM] | GI50 (SK-MEL-2 melanoma) [µM] | GI50 (SN12C renal) [nM] | GI50 (SW-620 colon) [nM] | GI50 (TK-10 renal) [µM] | GI50 (UACC-257 melanoma) [µM]
O=[N+]([O-])c1ccc(/C(Cl)=C/c2ccc(/C=C(\Cl)c3ccc([N+](=O)[O-])cc3[N+](=O)[O-])cc2)c([N+](=O)[O-])c1 | > 100 | > 100 | > 100 | > 100 | > 100 | > 100 | > 100 | > 100 | > 100 | > 100 |  |  |  |  |  |  |  |  |  | 
FC(F)(F)c1cc(-c2ncn(/C=C\c3nnco3)n2)cc(C(F)(F)F)c1 | > 33.4 | 4.87 | > 47.7 | 15.6 | 0.11 | 0.251 | > 100 | > 43.1 | 12.5 | > 66.4 | 133 | 39.1 | 58.9 | 33.6 | 21.6 | 0.031 | 417 | 53.6 | 0.0803 | 0.0673
CCCCCCc1cc2cc(-c3csc(/C=C/c4ccccc4)n3)c(=O)oc2cc1O | > 100 | 17.7 | 9.55 | 19.7 | 15.1 | 41.1 | 4.43 | 20.7 | 69.5 | > 100 | 5530 | 4320 | 2790 | 4840 | 3710 | 18.1 | 2120 | 5600 | 29 | 40.4
O=C(O)c1ccc(Oc2nc3ccccc3s2)cc1 | > 100 | > 100 | > 100 | > 100 | > 100 | > 100 | > 100 | > 100 | > 100 | > 100 |  |  |  |  |  |  |  |  |  | 
COc1ccc(C2CC(c3ccc4ccccc4c3)=NN2c2nc(O)c(C3=c4cc(OC)ccc4=NC3=O)s2)cc1 (stereo not given) | 1.09 | 0.358 | 1.26 | 3.93 | 0.0831 | 0.497 | 0.464 | 0.0658 | 0.371 | 6.14 | 97.3 | 131 | 64.6 | 270 | 26.6 | 0.178 | 166 | 24.9 | 0.0905 | 0.718
NS(=O)(=O)c1ccc(N=C2C(=O)Nc3ccccc32)cc1 | > 100 | > 100 | > 100 | > 100 | > 100 | > 100 | > 100 | > 100 | > 100 | > 100 |  |  |  |  |  |  |  |  |  | 
O=c1[nH]c2ccccc2n2cc3ccccc3c12 | 18.6 | 18.5 | 33.3 | 22.6 | 29.9 | 38.8 | 6.32 | > 100 | 36.9 | 33.1 | 3310 | 3990 | 5280 | 3700 | 6260 | 20.6 | 1670 | 3690 | 20.6 | 15.3
CC1=NC=C(O)c2ccccc2O1 | > 100 | > 100 | > 100 | > 100 | > 100 | > 100 | > 100 | > 100 | > 100 | > 100 |  |  |  |  |  |  |  |  |  | 
